Measured values as given in patent US7138361B2, “Herbicidal heterocycles” (E. I. du Pont de Nemours and Company, priority 2000, dated 2006).

How the values were obtained:
Assay type in all cases: in vivo
[1] = system: barnyardgrass (Echinochloa crus-galli); assay: Test B preemergence
Procedure, shortened: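 Seeds were planted and sprayed preemergence with test chemical in a non-phytotoxic solvent mixture containing surfactant; postemergence plants (2 to 18 cm, 1- to 4-leaf stage) received the same formulation. Greenhouse hold 13 to 15 days, then visual rating versus untreated controls on a 0–100 scale (0 no effect, 100 complete control).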

Nightshade [2] = assay: Test C preemergence; details: Rate 500 g/ha, visual evaluation after 12 to 14 days
[3] = system: woolly cupgrass (Eriochloa villosa); assay: Test C preemergence
Procedure, shortened: (§1)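 Formulation: non-phytotoxic solvent mix incl. surfactant. Pre: applied right after planting. Post: 1–4-leaf seedlings. Read: visual 0–100, day 12–14, greenhouse.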

[4] = system: bermudagrass (Cynodon dactylon); assay: Test C preemergence
Procedure, shortened: as §1

soybean (Glycine max) = assay: Test C preemergence
Procedure, shortened: as §1

[5] = system: velvetleaf (Abutilon theophrasti); assay: Test C preemergence
Procedure, shortened: as §1

[6] = system: crabgrass (Digitaria sanguinalis); assay: Test C preemergence
Procedure, shortened: as §1

[7] = system: morningglory (Ipomoea hederacea); assay: Test C preemergence
Procedure, shortened: as §1

[8] = system: yellow nutsedge (Cyperus esculentus); assay: Test C preemergence; details: preemergence
Procedure, shortened: as §1

Nightshade [9] = assay: Test C preemergence
[10] = system: goosegrass (Eleusine indica); assay: Test C preemergence
Procedure, shortened: as §1

kochia (Kochia scoparia) = assay: Test C preemergence
Procedure, shortened: as §1

[11] = system: pigweed (Amaranthus retroflexus); assay: Test C preemergence
Procedure, shortened: as §1

corn (Zea mays) = assay: Test C preemergence; details: preemergence
Procedure, shortened: as §1

[12] = system: cocklebur (Xanthium strumarium); assay: Test C preemergence
Procedure, shortened: as §1

[13] = system: lambsquarters (Chenopodium album); assay: Test C preemergence
Procedure, shortened: as §1

[14] = system: johnsongrass (Sorghum halepense); assay: Test C preemergence
Procedure, shortened: as §1

[15] = system: giant foxtail (Setaria faberii); assay: Test C preemergence
Procedure, shortened: as §1

Sunflower = assay: Test C preemergence; details: Rate 500 g/ha, visual evaluation after 12 to 14 days
[16] = Rate 125 g/ha, scale 0 to 100, 0 no effect, 100 complete control
[17] = preemergence, Rate 62 g/ha, scale 0 to 100
[18] = preemergence, Rate 500 g/ha, visual evaluation after 12 to 14 days
[19] = preemergence, Rate 250 g/ha, scale 0 to 100, 0 no effect, 100 complete control
[20] = Rate 500 g/ha, visual evaluation after 12 to 14 days
[21] = Rate 250 g/ha, scale 0 to 100, 0 no effect, 100 complete control

CC(C)(C)c1ccn(C2OCN(c3cccc(OC(F)F)c3)C2=O)n1 (centres unmarked) [Compound 133]
Plant response rating, Barnyardgrass ([1]; Preemergence, Rate 500 g/ha, scale 0 to 100, 0 no effect, 100 complete control): 100
Plant response rating, Barnyardgrass ([1]; preemergence, Rate 125 g/ha, scale of 0 to 100 where 0 is no effect and 100 is complete control, 13 to 15 days): 100
Plant response rating (0 to 100), Nightshade (Nightshade [2]): 90
Plant response rating, Cupgrass, Woolly [3, 16]: 100
Plant response rating, Cupgrass, Woolly [3, 17]: 100
Plant response rating (0 to 100), Cupgrass, Woolly [3, 18]: 100
Plant response rating, Cupgrass, Woolly [3, 19]: 100
Plant response rating, Bermudagrass [4, 16]: 100
Plant response rating, Bermudagrass [4, 17]: 100
Plant response rating (0 to 100 where 0 is no effect and 100 is complete control), Bermudagrass [4, 18]: 100
Plant response rating, Bermudagrass [4, 19]: 100
Plant response rating, Soybean (soybean (Glycine max); [16]): 0
Plant response rating, Soybean (soybean (Glycine max); [17]): 0
Plant response rating (0 to 100), Soybean (soybean (Glycine max); [18]): 0
Plant response rating, Soybean (soybean (Glycine max); [19]): 0
Plant response rating, Velvetleaf [5, 16]: 20
Plant response rating, Velvetleaf [5, 17]: 0
Plant response rating (0 to 100), Velvetleaf [5, 18]: 30
Plant response rating, Velvetleaf [5, 19]: 20
Plant response rating, Crabgrass [6, 16]: 100
Plant response rating, Crabgrass [6, 17]: 100
Plant response rating (0 to 100), Crabgrass [6, 18]: 100
Plant response rating, Crabgrass [6, 19]: 100
Plant response rating, Morningglory [7, 16]: 0
Plant response rating, Morningglory [7, 17]: 0
Plant response rating (0 to 100), Morningglory [7, 18]: 30
Plant response rating, Morningglory [7, 19]: 20
Plant response rating, Nutsedge ([8]; Rate 62 g/ha, scale 0 to 100): 70
Plant response rating (0 to 100), Nutsedge [8, 20]: 90
Plant response rating, Nutsedge [8, 21]: 90
Plant response rating, Nightshade (Nightshade [9]; Rate 62 g/ha, scale 0 to 100): 0
Plant response rating, Nightshade (Nightshade [9]; [16]): 0
Plant response rating, Nightshade (Nightshade [9]; [21]): 20
Plant response rating, Goosegrass [10, 16]: 100
Plant response rating, Goosegrass [10, 17]: 100
Plant response rating (0 to 100), Goosegrass [10, 18]: 100
Plant response rating, Goosegrass [10, 19]: 100
Plant response rating, Kochia (kochia (Kochia scoparia); [16]): 100
Plant response rating, Kochia (kochia (Kochia scoparia); [17]): 100
Plant response rating (0 to 100), Kochia (kochia (Kochia scoparia); [18]): 100
Plant response rating, Kochia (kochia (Kochia scoparia); [19]): 100
Plant response rating, Pigweed [11, 16]: 100
Plant response rating, Pigweed [11, 17]: 50
Plant response rating (0 to 100), Pigweed [11, 18]: 100
Plant response rating, Pigweed [11, 19]: 100
Plant response rating, Corn (corn (Zea mays); Rate 62 g/ha, scale 0 to 100): 100
Plant response rating (0 to 100), Corn (corn (Zea mays); [20]): 100
Plant response rating, Corn (corn (Zea mays); [21]): 100
Plant response rating, Cocklebur [12, 16]: 0
Plant response rating, Cocklebur [12, 17]: 0
Plant response rating (0 to 100), Cocklebur [12, 18]: 0
Plant response rating, Cocklebur [12, 19]: 0
Plant response rating, Lambsquarters [13, 16]: 100
Plant response rating, Lambsquarters [13, 17]: 100
Plant response rating (0 to 100), Lambsquarters [13, 18]: 100
Plant response rating, Lambsquarters [13, 19]: 100
Plant response rating, Johnsongrass [14, 16]: 100
Plant response rating, Johnsongrass [14, 17]: 80
Plant response rating (0 to 100), Johnsongrass [14, 18]: 100
Plant response rating, Johnsongrass [14, 19]: 100
Plant response rating, Foxtail, Giant [15, 16]: 100
Plant response rating, Foxtail, Giant [15, 17]: 90
Plant response rating (0 to 100), Foxtail, Giant [15, 18]: 100
Plant response rating, Foxtail, Giant [15, 19]: 100
Plant response rating (0 to 100), Sunflower (Sunflower): 0
